Experiments:
[1] = target: T1, human GPR40 (Homo sapiens, UniProt O14842); test: Receptor function regulating action (agonist action) for GPR40, intracellular calcium by FLIPR in CHO cells; format: cell-based; details: CHO cells expressing human GPR40; change of fluorescence intensity at 30 seconds after reaction initiation
T1 construct: expressed in transfected cells; host or cells: CHO cell strain (No. 104)
Procedure: CHO cell strain (No. 104) which have had expressed human GPR40 was diluted to contain 3×10^4 cells/100 μL, and added to a Black walled 96-well plate (Costar) at 100 μL/well, and incubated overnight in CO2 incubator. Change of intracellular calcium concentration was measured with FLIPR (Molecular Device). The method is as follows. 50 μg of Fluo-3AM (DOJIN) was dissolved in 21 μL of DMSO (DOJIN), and the same amount of 20% pluronic acid (Molecular Probes) was further added thereto, and the mixture was mixed. The mixture was added to 10.6 mL of an assay buffer [prepared by adding 10 mL of solution which was produced by adding 20 mL of 1 M HEPES (pH 7.4) (DOJIN) to 1 L of HBSS (Invitrogen), dissolving 710 mg of probenecid (Sigma) in 5 mL of 1N NaOH, and further adding 5 mL of the above-mentioned HBSS/HEPES solution thereto and mixing it.] containing 105 μL of fetal bovine serum, to give a fluorescent dye solution. The medium of the cell plate was removed, and immediately, the fluorescent dye solution was added at 100 μL/well, and incubated in CO2 incubator for 1 hour, allowing the fluorescent dye to be incorporated into the cells. The cells after incubation were washed with the above-mentioned assay buffer. The compound to be added to the cells was diluted with the assay buffer to each concentration, added to the plate for the test sample. After conducting the above-mentioned pretreatment, intracellular calcium concentration change after adding the compound was measured in FLIPR to investigate the agonist action. By dose-response curve with the change of fluorescence intensity value at 30 seconds after reaction initiation, EC50 value was calculated.

[2] = target: T2, PPARα-RXRα heterodimer (Homo sapiens, UniProt Q07869); test: PPARα-RXRα heterodimer ligand activity (luciferase reporter, transfected COS-1 cells); format: cell-based; details: luciferase activity at 10 nM compound relative to control without compound as 1
T2 construct: expressed in transfected cells; host or cells: COS-1 (transient; pMCMVneo-hPPARα + pMCMVneo-hRXRα)
T2 sequence (Q07869 1-468): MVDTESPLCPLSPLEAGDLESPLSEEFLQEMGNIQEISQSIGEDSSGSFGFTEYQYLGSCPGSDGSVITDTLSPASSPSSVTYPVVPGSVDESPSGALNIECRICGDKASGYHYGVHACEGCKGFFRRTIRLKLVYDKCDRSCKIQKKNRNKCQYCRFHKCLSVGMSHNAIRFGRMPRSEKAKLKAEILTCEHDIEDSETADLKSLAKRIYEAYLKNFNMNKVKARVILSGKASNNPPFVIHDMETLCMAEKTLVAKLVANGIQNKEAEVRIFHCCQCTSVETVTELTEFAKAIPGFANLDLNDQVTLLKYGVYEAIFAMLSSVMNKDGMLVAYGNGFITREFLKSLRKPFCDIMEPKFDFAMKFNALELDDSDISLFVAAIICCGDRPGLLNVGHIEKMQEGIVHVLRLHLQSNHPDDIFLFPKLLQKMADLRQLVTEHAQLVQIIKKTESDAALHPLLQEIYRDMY
T2 sequence (P19793 1-462 partner): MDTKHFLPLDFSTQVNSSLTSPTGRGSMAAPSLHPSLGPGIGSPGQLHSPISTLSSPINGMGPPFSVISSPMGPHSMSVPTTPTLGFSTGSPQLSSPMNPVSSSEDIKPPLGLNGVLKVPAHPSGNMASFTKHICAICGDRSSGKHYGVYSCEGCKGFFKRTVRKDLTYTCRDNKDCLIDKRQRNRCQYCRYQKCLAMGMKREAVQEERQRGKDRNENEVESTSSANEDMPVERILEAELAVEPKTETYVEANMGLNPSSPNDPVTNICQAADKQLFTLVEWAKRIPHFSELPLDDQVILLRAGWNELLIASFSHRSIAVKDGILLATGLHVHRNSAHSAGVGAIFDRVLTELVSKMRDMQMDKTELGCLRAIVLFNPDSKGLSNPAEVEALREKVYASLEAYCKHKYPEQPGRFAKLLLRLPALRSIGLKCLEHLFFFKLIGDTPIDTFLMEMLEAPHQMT
Procedure: At 18 to 24 hours after transfection carried out in Reference Example 12a, COS-1 cells were collected, suspended in DMEM medium [manufactured by Life Technologies, Inc., USA] containing 0.1% BSA (fatty acid-free) (produced by Waco Pure Chemicals Industries, Ltd.), and inoculated to each well of a 96-well white plate (produced by Corning, USA) at 1×10^4 cells/well in 80 μl. Subsequently, 20 μl of a test compound was added, and the plate was incubated at 37° C. in a carbon dioxide gas incubator for 36 to 48 hours. After removal of the medium from the 96-well white plate, 40 μl of PicaGene LT 7.5 (produced by Waco Pure Chemicals Industries, Ltd.) diluted twofold with HBSS (HANKS' BALANCED SALT SOLUTION) (produced by BIO WHITTAKER) was added, and after stirring, the luciferase activity was determined using 1420 ARVO Multilabel Counter [produced by Wallac].
The fold induction was calculated from the luciferase activity for the well to which 10 nM of the compound is added, relative to the luciferase activity of a control to which the compound is not added as 1. Results are shown in [Table 3].
A COS-1 cell was inoculated in a cell culture flask (produced by Corning, USA) of 150 cm^2 at 5×10^6 cells/50 ml, and incubated under the conditions of 37° C. and 5% CO2 for 24 hours. Transfection was carried out with lipofectamine (produced by Invitrogen, USA). A transfection mixture solution was prepared by mixing 125 μl of lipofectamine, 100 μl of PLUS Reagent, 2.5 μg of pMCMVneo-hPPARα (obtained in Reference Example 11a), 2.5 μg of pMCMVneo-hRXRα (obtained in Reference Example 4a), 5 μg of reporter plasmid pGL3-4ERPP-TK neo (obtained in Reference Example 5a) and 5 μg of pRL-tk [produced by Promega, USA] with 5 ml of opti-MEM (produced by Invitrogen, USA). To COS-1 cell washed with opti-MEM, the above-mentioned transfection mixture solution and 20 ml of opti-MEM were added, and then incubated under the conditions of 37° C. and 5% CO2 for 3 hours. Then, 25 ml of DMEM medium [manufactured by Life Technologies, Inc., USA] containing 0.1% fatty acid-free bovine serum albumin (BSA) (produced by Waco Pure Chemicals Industries, Ltd.) was added thereto, and then incubated under the conditions of 37° C. and 5% CO2 for 18 to 24 hours.

T1 sequence (O14842 whole entry): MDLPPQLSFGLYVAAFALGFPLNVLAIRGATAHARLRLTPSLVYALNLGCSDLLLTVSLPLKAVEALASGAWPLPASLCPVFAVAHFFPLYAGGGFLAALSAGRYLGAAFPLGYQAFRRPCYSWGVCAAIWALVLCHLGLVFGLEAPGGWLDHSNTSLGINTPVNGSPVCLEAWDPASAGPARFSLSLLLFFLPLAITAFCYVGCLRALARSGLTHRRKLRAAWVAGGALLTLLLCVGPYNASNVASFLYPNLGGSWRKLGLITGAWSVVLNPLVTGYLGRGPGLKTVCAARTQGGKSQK

SMILES	EC50 [1] [nM]	melting point [°C]	fold induction at 0.01 µM [2]
CCCCC/C=C\C/C=C\C/C=C\CCCCC(=O)O [γ-linolenic acid]	2000	–	–
Cc1cc(OCc2cc(-c3ccc(F)cc3)oc2C)ccc1CCC(=O)O [Example 5(8), 3-(4-{[5-(4-Fluorophenyl)-2-methyl-3-furyl]methoxy}-2-methylphenyl)propionic acid]	100	123 to 125	–
CC(C)c1oc(-c2ccc(C(F)(F)F)cc2)cc1C(=O)Nc1cccc(CSCC(=O)O)c1 [Example 2(1), {[3-({2-Isopropyl-5-[4-(trifluoromethyl)phenyl]-3-furoyl}amino)benzyl]thio}acetic acid]	–	–	10.9
CCc1oc(-c2ccc(C(F)(F)F)cc2)cc1COc1cccc(CSCC(=O)O)c1 [Example 5(5)]	–	–	10.1
Cc1oc(-c2ccc(F)cc2)cc1C(=O)Nc1cccc(CSCC(=O)O)c1 [Example 1, [(3{[5-(4-Fluorophenyl)-2-methyl-3-furoyl]amino}benzyl)thio]acetic acid]	–	–	10.2
Cc1oc(-c2ccc(C(F)(F)F)cc2)cc1COc1ccc(OCC(=O)O)cc1 [Example 6(7), [4-({2-Methyl-5-[4-(trifluoromethyl)phenyl]-3-furyl}methoxy)phenoxy]acetic acid]	290	168 to 169	–
Cc1oc(-c2ccc(F)cc2)cc1COc1cccc(CSC(C)(C)C(=O)O)c1 [Example 6, 2-[(3-{[5-(4-Fluorophenyl)-2-methyl-3-furyl]methoxy}benzyl)thio]-2-methylpropionic acid]	–	–	9.3
CCCCc1oc(-c2ccc(C(F)(F)F)cc2)cc1COc1ccc(CCC(=O)O)c(C)c1 [Example 5(11), 3-[4-({2-Butyl-5-[4-(trifluoromethyl)phenyl]-3-furyl}methoxy)-2-methylphenyl]propionic acid]	580	118 to 119	–
Cc1cc(OCc2cc(-c3ccc(C(F)(F)F)cc3)oc2C(C)C)ccc1CCC(=O)O [Example 5(10), 3-[4-({2-Isopropyl-5-[4-(trifluoromethyl)phenyl]-3-furyl}methoxy)-2-methylphenyl]propionic acid]	870	108 to 109	–
Cc1oc(-c2ccc(F)cc2)cc1COc1cccc(CSCC(=O)O)c1 [Example 6(1), [(3-{[5-(4-Fluorophenyl)-2-methyl-3-furyl]methoxy}benzyl)thio]acetic acid]	–	120 to 122	8.9
Cc1oc(-c2ccc(C(F)(F)F)cc2)cc1COc1cccc(CSCC(=O)O)c1 [Example 6(2), {[3-({2-Methyl-5-[4-(trifluoromethyl)phenyl]-3-furyl}methoxy)benzyl]thio}acetic acid]	–	–	9.2
CCCCc1oc(-c2ccc(C(F)(F)F)cc2)cc1CCCOc1ccc(CC(=O)O)cc1 [Example 6(16), [4-(3-{2-Butyl-5-[4-(trifluoromethyl)phenyl]-3-furyl}propoxy)phenyl]acetic acid]	–	96 to 97	–
COc1cccc(-c2cc(COc3ccc(OC(C)(C)C(=O)O)cc3)c(C)o2)c1 [Example 6(60), 2-(4-{[5-(3-Methoxyphenyl)-2-methyl-3-furyl]methoxy}phenoxy)-2-methylpropionic acid]	–	111 to 112	–

Source: patent US7553867B2, “Furan or thiophene derivative and medicinal use thereof” (Takeda Pharmaceutical Company Limited, priority 2002, dated 2009)
